Data reported in PMC9611727, “Optimization of a Novel Mandelamide-Derived Pyrrolopyrimidine Series of PERK Inhibitors” (Pharmaceutics, 2022).

Legend:
PERK = biological target: T1, PERK (Homo sapiens, UniProt Q9NZJ5); test: ISR kinase cell-free biochemical assay (Carna), PERK; settings: ATP 8 µM
T1 construct: purchased Carna 05-155
Protocol: In brief, 26 was dissolved in DMSO and serially diluted 3-fold to generate concentrations ranging from 10 µM to 0.2 nM in a 384-well plate using a TECAN EVO200 automated liquid handler. 10 nL stock solution was transferred into each well of a 384well assay plate by an Echo550 and an equivalent volume of DMSO was added to the control wells. To each assay well, recombinant protein was suspended in 20 µL reaction buffer (listed below) and incubated at 25 °C for 1.5 h while shaking at 1250 rpm. Following incubation, 10 µL of a FRET dilution buffer including 20 mM EDTA and 4 nM Tb-anti-peIF2a [pSer51] (Invitrogen, Cat# PV4815) was added to each well and incubated at 25 °C for 2 h while shaking at 600 rpm in the dark. Analysis was performed using an Envision Microplate Reader (PerkinElmer).

MV4-11 (FLT3-ITD) = test: Cell viability assay, MV4-11; assay type: cell-based; settings: Homo sapiens
Protocol: (§1) MV-4-11 and EoL-1 were plated at a density 20,000 cells/well in a 96 well plate. Cells were incubated with DMSO, 1 µM docetaxel, or an 8-pt, 2-fold dose response of 26 in quadruplicate. On day 3 and day 7, cells from DMSO-treated wells were counted and cells from all wells were split back so that the DMSO-treated wells matched the original seeding density. Cells were centrifuged in 96 well filter plates (Sigma) and resuspended in fresh compound-containing media.
(§2) On day 10, cells were incubated with alamarBlue™ HS Cell Viability Reagent (Invitogen) (10 µL of alamarBlue in a well of 90 µL media) for 2 hours at 37C/5% CO2. Fluorescence was measured on the EnVision Plate reader (Perkin Elmer) at an ex/em of 560/590 nm. Raw fluorescence values were normalized to positive and negative controls (DMSO, 1 µM docetaxel) to get a % viability. Replicates were averaged and dose responses were plotted on a 4 Parameter Logistic […]
(§3) MV-4-11 cells were plated in 6 well plates overnight in reduced serum media (IMDM + 0.5% FBS). The following day, compound or vehicle were added to the plate for a final DMSO concentration of 0.1% and incubated at 37 C for 2 hours.
(§4) Cells were washed with 1X PBS (Gibco 10010-023), and lysed in RIPA buffer with added inhibitors. Protein concentration was determined using a BCA assay (Thermo Scientific 23225). […]

MOLM-13 (FLT3-ITD) = test: Cell viability assay, MOLM-13; assay type: cell-based; settings: Homo sapiens
MOLM-16 (FLT3wt) = test: Cell viability assay, MOLM-16; assay type: cell-based; settings: Homo sapiens, MOLM16
p-STAT5 = test: FLT3-ITD downstream signaling, p-STAT5 western blot in MV4-11 cells; assay type: cell-based; settings: Homo sapiens, normalized to Crenolanib, read-out: pSTAT5 IC50
Protocol: as §1, §2, §3, §4

p-ERK = test: FLT3-ITD downstream signaling, p-ERK western blot in MV4-11 cells; assay type: cell-based; settings: Homo sapiens, normalized to Crenolanib, read-out: pERK IC50
Protocol: as §1, §2, §3, §4

T1 sequence (Q9NZJ5 563-1116 limits assumed): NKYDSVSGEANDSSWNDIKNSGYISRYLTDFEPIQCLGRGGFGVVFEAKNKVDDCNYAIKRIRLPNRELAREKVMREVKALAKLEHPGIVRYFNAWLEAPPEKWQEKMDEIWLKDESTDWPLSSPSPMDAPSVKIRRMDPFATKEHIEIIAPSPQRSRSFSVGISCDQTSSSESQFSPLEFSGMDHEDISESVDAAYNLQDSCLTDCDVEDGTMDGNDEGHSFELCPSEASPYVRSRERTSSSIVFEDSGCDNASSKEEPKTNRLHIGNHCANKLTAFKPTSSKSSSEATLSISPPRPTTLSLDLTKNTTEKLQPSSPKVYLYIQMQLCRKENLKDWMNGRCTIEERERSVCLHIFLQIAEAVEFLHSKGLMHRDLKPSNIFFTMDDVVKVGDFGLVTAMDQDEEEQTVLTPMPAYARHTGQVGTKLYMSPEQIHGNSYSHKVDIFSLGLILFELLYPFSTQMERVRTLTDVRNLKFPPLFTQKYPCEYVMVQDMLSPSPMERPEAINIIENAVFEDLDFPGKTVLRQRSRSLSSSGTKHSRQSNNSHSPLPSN

`Cc1nc(N)c2c(-c3ccc(NC(=O)[C@H](O)c4cccc(C(F)(F)F)c4)cc3C)cn(C)c2n1` [Compound 26] showed an IC50 (PERK) of 4.7 nM, an IC50 (MV4-11 (FLT3-ITD)) of 226 nM and an IC50 (MOLM-13 (FLT3-ITD)) of 311 nM. For the same compound, the IC50 (MOLM-16 (FLT3wt)) was over 10000 nM, the IC50 (p-STAT5) was 64 nM and the IC50 (p-ERK) was 551 nM.
